How the values were obtained:
[1] = Times to onset, minimal and maximal, observed in the indexed observations. [column 'DELAI' in source]; conditions: human
[2] = human
[3] = human; remark: listed apart in the source
[4] = Presence of at least one case with successful reintroduction. [column 'REINT' in source]; conditions: human
[5] = human; remark: listed apart in the source
[6] = human, serum
[7] = human; remark: listed apart in the source
[8] = human; remark: listed apart in the source
[9] = human; remark: listed apart in the source
[10] = Highest frequency of acute liver toxicity observed during clinical trials, expressed as a percentage. [column '% AIGUE' in source]; conditions: human
[11] = Comments (NB not yet translated). [column 'COMMENTAIRES' in source]; conditions: human
[12] = human; remark: listed apart in the source
[13] = human, serum; remark: listed apart in the source
[14] = human, serum, 4383 h
[15] = human; remark: listed apart in the source
[16] = human; remark: listed apart in the source
[17] = Highest frequency of moderate liver toxicity observed during clinical trials, expressed as a percentage. [column '% BIOL' in source]; conditions: human
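Throughout, for Hepatotoxicity (association with vascular disease): count of indexed literature references reporting vascular liver injury in humans, e.g. peliosis hepatitis, hepatic veno-occlusive disease or Budd-Chiari syndrome.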
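Throughout, for Hepatotoxicity (benign tumour): value is a count of indexed literature references citing a benign tumour confirmed by histopathology.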
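Throughout, for Hepatotoxicity (choleostasis): human cholestatic liver injury, shown by histopathology or by peak ALT or AST elevation over alkaline phosphatase ratio below 2, value counts indexed literature reports.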
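Throughout, for Hepatotoxicity (chronic liver disease): chronic liver injury confirmed by histopathology or persistently raised serum aminotransferase activity beyond 6 months, value given as the count of indexed literature references.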
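Throughout, for Hepatotoxicity (cirrhosis): value is a count of indexed literature references reporting cirrhosis confirmed by histopathology.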
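Throughout, for Hepatotoxicity (cytolytic): human cytolytic liver injury, shown by histopathology or by a ratio above 5 of peak ALT or AST elevation to alkaline phosphatase elevation, value counts indexed references.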
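Throughout, for Hepatotoxicity (granulomatous hepatitis): value is a count of indexed literature references reporting granulomatous liver disease confirmed by histopathology.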
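Throughout, for Hepatotoxicity (malignant tumour): malignant tumour confirmed by histopathology, value gives the count of indexed literature references reporting it.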
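Throughout, for Hepatotoxicity (severe hepatitis): human clinical data: severe hepatitis, meaning potentially life-threatening liver failure or clinically observed cases, the value counts how many indexed literature references report it.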
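Throughout, for Hepatotoxicity (steatosis): steatosis confirmed by histopathology, value is the count of indexed references.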

| Structure (SMILES) | Hepatotoxicity (time to onset) [1] | Hepatotoxicity (cirrhosis) [2] | Hepatotoxicity (association with vascular disease) [3] | Hepatotoxicity (successful reintroduction) [4] | Hepatotoxicity (benign tumour) [5] | Hepatotoxicity (acute) [6] | Hepatotoxicity (cytolytic) [7] | Hepatotoxicity (choleostasis) [8] | Hepatotoxicity (granulomatous hepatitis) [9] | Hepatotoxicity (comment) [11] | Hepatotoxicity (moderate) [13] | Hepatotoxicity (chronic liver disease) [14] | Hepatotoxicity (steatosis) [15] | Hepatotoxicity (malignant tumour) [16] | Hepatotoxicity (acute) [10] [%] | Hepatotoxicity (severe hepatitis) [12] | Hepatotoxicity (moderate) [17] [%] | other results |
| --- | --- | --- | --- | --- | --- | --- | --- | --- | --- | --- | --- | --- | --- | --- | --- | --- | --- | --- |
| CC[C@H](C)C(=O)O[C@H]1C[C@H](O)C=C2C=C[C@H](C)[C@H](CC[C@@H](O)C[C@@H](O)CC(=O)O)[C@H]21 [PRAVASTATIN] | 1 week - 20 weeks | 0 | 0 | yes | 0 | 7 | 3 | 3 | 0 | AC_ANTI-N/-MF | 50 | 0 | 1 | 0 |  |  |  | Hepatotoxicity (acute) ([10]; Liver): 1.1%; Hepatotoxicity (severe hepatitis) ([12]; Liver): 0; Hepatotoxicity (moderate) ([17]; Liver): 22.5% |
| Cc1ncc(CSSCc2cnc(C)c(O)c2CO)c(CO)c1O [PYRITINOL] | 1 day - 2 months | 0 | 0 | yes | 0 | 6 | 1 | 4 | 0 | CHOLESTASE_PROLONGEE | 1 | 0 | 1 | 0 | 0 | 1 | 1.4 |  |
| CCN(CC)CCCC(C)Nc1c2ccc(Cl)cc2nc2ccc(OC)cc12 (stereo not drawn) [QUINACRINE] | 1 week - 4 months | 0 | 0 | yes | 0 | 4 | 2 | 1 | 0 | CHOLANGITE | 2 | 0 | 0 | 0 | 0.1 | 1 | 0 |  |
| CN[C@H]1CC[C@@H](c2ccc(Cl)c(Cl)c2)c2ccccc21 [SERTRALINE] | 3 days - 5 months | 0 | 0 | yes | 0 | 8 |  |  |  | CHOLANGIOLITE | 4 | 0 | 0 | 0 |  |  |  | Hepatotoxicity (cytolytic) ([7]; Liver): 5; Hepatotoxicity (choleostasis) ([8]; Liver): 4; Hepatotoxicity (granulomatous hepatitis) ([9]; Liver): 0; Hepatotoxicity (acute) ([10]; Liver): 0%; Hepatotoxicity (severe hepatitis) ([12]; Liver): 1; Hepatotoxicity (moderate) ([17]; Liver): 0.8% |
| CC(C(=O)O)c1ccc(C(=O)c2ccccc2)s1 (stereo not drawn) [TIAPROFENIC ACID] | 3 weeks - 2 months | 0 | 0 | yes | 0 | 3 | 2 | 2 | 0 | RC/DICLOFENAC | 1 | 0 | 0 | 0 | 0 | 0 | 3.8 |  |
| CC1(C)S[C@@H]2[C@H](NC(=O)[C@H](C(=O)O)c3ccsc3)C(=O)N2[C@H]1C(=O)O [TICARCILLIN] | 2 days - 1 week | 0 | 0 | yes | 0 | 0 | 0 | 0 | 0 | RC/CARBENICILLINE | 7 | 0 | 0 | 0 | 0 | 0 | 5 |  |
| Cc1ccc(S(=O)(=O)NC(=O)NN2CCCCCC2)cc1 [TOLAZAMIDE] | 3 weeks - 18 months | 0 | 0 | yes | 0 | 5 | 5 | 4 | 0 | CHOLESTASE_PROLONGEE RC/CHLORPROPAMIDE | 0 | 0 | 0 | 0 | 0 | 1 | 0 |  |
| CC(=O)CC(c1ccccc1)c1c(O)c2ccccc2oc1=O (stereo not drawn) [WARFARIN] | 1 week - 2.5 years | 0 | 0 | yes | 0 | 6 | 0 | 5 | 0 | RC/PHENPROCOUMON RUPTURE_HEPATIQUE #S.REYE | 2 | 0 | 0 | 0 | 0 | 0 | 0 |  |
| Cc1cn([C@H]2C[C@H](N=[N+]=[N-])[C@@H](CO)O2)c(=O)[nH]c1=O [ZIDOVUDINE] | 1 week - 8 years | 0 | 0 | yes | 0 | 25 | 22 | 3 | 0 | I/INTERFERON/PARACETAMOL REACTIVATION_HVB | 26 | 0 | 17 | 0 | 12.5 | 13 | 44 |  |

From ChEMBL document CHEMBL3137667, “[Drug-induced liver injury; fourteenth updated edition of the bibliographic database of liver injuries and related drugs]” (Gastroenterol Clin Biol, 2004)
